Measured values as given in US8809627B2, “Plant isoflavone and isoflavanone O-methyltransferase genes” (The Samuel Roberts Noble Foundation, Inc., priority 2006, dated 2014).

Tests used:
MtIOMT7 = assay: OMT assays with purified recombinant MtIOMT7 (relative activity; HPLC/MS of products); format: biochemical, Medicago truncatula; conditions: for Relative activity, MtIOMT7: 50 μM S-adenosyl methionine, 100 μM acceptor substrate, most converted substrate = 100%
Source text: (§1) Cloning of MtIOMT5 (corresponding to TC 100926, TIGR MtGI v.8) was as described previously (Liu et al., 2005). To obtain a full-length cDNA for MtIOMT2, specific primers designed based upon the M. truncatula genomic sequence were used to amplify the MtIOMT2 coding sequence from M. truncatula root cDNA. The amplified product was cloned into the pGEM®-T easy vector (Promega, Madison Wis.) and sequenced to confirm its identity. MtIOMTs were cloned into the pET28a vector (EMD Biosciences, Inc., San Diego, Calif.) using PCR-based amplification with primers designed to introduce EcoRI and XhoI restriction sites; BamHI and XhoI sites were used for cloning MtIOMT6 due to the presence of an internal EcoRI site in this particular cDNA. Because the EST for MtIOMT8 was missing a start codon, the primer designed to clone MtIOMT8 into pET28a contained an additional 2-nucleotide insertion to generate an ATG start site. All MtIOMTs were expressed as translational fusions to an N-terminal His-tag. Expression of MtIOMTs in E. coli BL21(DE3) and purification by Ni^2+-NTA chromatography were as described (Zubieta et al., 2001). Proteins were dialyzed against 20 mM Tris pH 8.0, 100 mM NaCl, 10% (v/v) glycerol, and 14 mM β-mercaptoethanol. Protein concentration was determined by Bradford assay using BSA as a standard (Bradford, 1976).
(§2) Reactions (200 μl) were performed in 0.1 M potassium phosphate, pH 7.4, 10% (w/v) sucrose, 14 mM β-mercaptoethanol with 10 μM protein, 0.5 mM S-adenosyl-L-methionine, and 80 μM phenolic substrates. All substrates were purchased from Indofine (Hillsborough, N.J.) except 6,7-dihydroxy-4′-methoxyisoflavone, dihydrodaidzein, and vestitol, which were purchased from Apin (Oxfordshire, UK). […] OMT assays were incubated at 30° C. for 2 h and extracted with ethyl acetate. Ethyl acetate extracts were dried under N2 and the resultant material was resuspended in 50-100 μl of methanol. Samples were analyzed on an Agilent 1100 HPLC, equipped with a quaternary pump (model #G1311A), a degasser (model #G1322A), an autosampler (model #G1313A), and a diode array detector (model #G1315A). Samples of 20 μl were applied to an ODS2 reverse-phase column (5 μm particle size, 4.6×250 mm) and eluted in 1% (v/v) phosphoric acid with an increasing gradient of acetonitrile (0-5 min, 25%; 5-35 min, 25-50%; 35-39 min, 50-100%) at a flow rate of 1 ml/min. To resolve the 4′-O-methylated and 7-O-methylated products of genistein, samples were applied to a Phenomenex SYNERGI Polar-RP 80 Å column (4 μm particle size, 4.6×250 mm) and eluted in water with an increasing gradient of acetonitrile (0-5 min, 20%; 5-17 min, 20-38%; 17-33 min, 38%; 33-45 min, 38-56%; 45-46 min, 56-100%) at a flow rate of 1 ml/min. Chiral chromatography was performed as described (Liu et al., 2005).
(§3) For determination of specific activities, reactions (100 μl) were performed in 0.1 M potassium phosphate, pH 7.4, 10% (w/v) sucrose, 14 mM β-mercaptoethanol with 0.2-μg protein, 50 μM S-adenosyl-L-methionine (0.025 μCi ^14C-SAM per reaction), and 100 μM substrate. Reactions were incubated at 30° C. for 15-25 min and stopped by addition of 4 μl of 1N HCl. Products were extracted into 500 μl of ethyl acetate and 400 μl was used for liquid scintillation counting.
(§4) An HP 1100 series II LC system (Hewlett-Packard, Palo Alto, Calif.) with a photodiode array detector was coupled to a Bruker Esquire ion-trap mass spectrometer (ITMS) equipped with an electrospray ionization source. A reverse phase, C18, 5 μm, 4.6×250 mm column (J. T. Baker, Phillipsburg, N.J.) was used for separations. The mobile phase consisted of 0.1% (v/v) acetic acid using linear gradients of 5-90% acetonitrile (v/v) in 70 min. The flow rate was 0.8 ml/min, and the temperature of the column was kept at 28° C. Both positive- and negative-ion mass spectra were acquired.

MtIOMT6 = assay: OMT assays with purified recombinant MtIOMT6 (relative activity; HPLC/MS of products); format: biochemical, Medicago truncatula; conditions: 50 μM S-adenosyl methionine, 100 μM acceptor substrate; most converted substrate = 100%
Source text: as §1, §2, §3
as §4, with “acquired. […]” for “acquired.”

MtIOMT4 = assay: OMT assays with purified recombinant MtIOMT4 (relative activity; HPLC of products); format: biochemical, Medicago truncatula; conditions: for Relative activity, MtIOMT4: 50 μM S-adenosyl methionine, 100 μM acceptor substrate, most converted substrate = 100%
Source text: as §1, §2
as §3, with “counting. […]” for “counting.”

MsI7OMT = target: T1, MsI7OMT (Medicago sativa, UniProt O24529); assay: OMT assays with purified recombinant MsI7OMT (relative activity); format: biochemical; conditions: 50 μM S-adenosyl methionine, 100 μM acceptor substrate; most converted substrate = 100%
T1 sequence (O24529 1-352): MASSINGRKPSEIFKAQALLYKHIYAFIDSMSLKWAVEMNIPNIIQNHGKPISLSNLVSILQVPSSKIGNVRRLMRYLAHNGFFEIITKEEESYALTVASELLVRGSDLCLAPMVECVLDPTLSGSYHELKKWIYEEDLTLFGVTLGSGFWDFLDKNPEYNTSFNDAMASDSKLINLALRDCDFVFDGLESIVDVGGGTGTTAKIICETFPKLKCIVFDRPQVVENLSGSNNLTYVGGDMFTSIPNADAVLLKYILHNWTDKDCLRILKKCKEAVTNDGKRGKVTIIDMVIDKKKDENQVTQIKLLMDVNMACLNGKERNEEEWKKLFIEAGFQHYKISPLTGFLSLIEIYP
Source text: as §1, §2, §3

MtIOMT2 = assay: OMT assays with purified recombinant MtIOMT2 (relative activity; HPLC/MS of products); format: biochemical, Medicago truncatula; conditions: for Relative activity, MtIOMT2: 50 μM S-adenosyl methionine, 100 μM acceptor substrate, most converted substrate (daidzein) = 100%
Source text: as §1, §2, §3
as §4, with “acquired. […]” for “acquired.”

MtIOMT3 = assay: OMT assays with purified recombinant MtIOMT3 (relative activity; HPLC/MS of products); format: biochemical, Medicago truncatula; conditions: 50 μM S-adenosyl methionine, 100 μM acceptor substrate; most converted substrate = 100%
Source text: as §1, §2, §3
as §4, with “acquired. […]” for “acquired.”

Structure (SMILES)	Relative activity, MtIOMT7 (MtIOMT7)	Relative activity, MtIOMT6 (MtIOMT6)	Relative activity, MtIOMT4 (MtIOMT4)	Relative activity, MsI7OMT (MsI7OMT)	Relative activity, MtIOMT2 (MtIOMT2)	Relative activity, MtIOMT3 (MtIOMT3)	Activity of MtIOMT4 (in words) (MtIOMT4)	Efficiency of methylation by MtIOMT2 (in words) (MtIOMT2)	Amount of substrate methylated after 2 h (MtIOMT7; MtIOMT7, 2 h)
O=c1c(-c2ccc(O)cc2)coc2cc(O)c(O)cc12 [6,7,4′-trihydroxyisoflavone]	0%	0%	0%	51.8%	35.3%	100%	–	–	–
COc1ccc(-c2coc3cc(O)c(O)cc3c2=O)cc1 [6,7-dihydroxy,4′-methoxyisoflavone]	0%	0%	0%	≦1%	0%	0%	–	–	–
O=c1c(-c2ccc(O)c(O)c2)coc2cc(O)ccc12 [7,3′,4′-trihydroxyisoflavone]	≦1%	0%	0%	47.1%	43.1%	52.9%	–	–	–
O=c1cc(-c2ccc(O)cc2)oc2cc(O)ccc12 [7,4′-dihydroxyflavone]	0%	0%	0%	0%	≦1%	0%	–	–	–
O=c1cc(-c2ccc(O)cc2)oc2cc(O)cc(O)c12 [Apigenin]	0%	0%	0%	0%	0%	0%	–	–	–
O=c1oc2cc(O)ccc2c2oc3cc(O)ccc3c12 [Coumestrol]	1.5%	0%	100%	0%	≦1%	0%	low level, trace activity	low efficiency	–
O=c1c(-c2ccc(O)cc2)coc2cc(O)ccc12 [Daidzein]	0%	0%	0%	21.6%	100%	≦1%	–	–	–
O=C1c2ccc(O)cc2OCC1c1ccc(O)cc1 (stereo not drawn) [Dihydrodaidzein]	84.1%	100%	0%	12.8%	70.1%	49.4%	–	–	–
O=c1c(-c2ccc(O)cc2)coc2cc(O)cc(O)c12 [Genistein]	0%	0%	0%	15%	61%	73.7%	–	–	–
COc1cc2c(=O)c(-c3ccc(O)cc3)coc2cc1O [Glycitein]	≦1%	0%	0%	100%	38.9%	51.6%	–	–	–
O=c1c(O)c(-c2cc(O)c(O)c(O)c2)oc2cc(O)cc(O)c12 [Myricetin]	0%	0%	0%	0%	0%	0%	–	–	–
O=C1C[C@@H](c2ccc(O)cc2)Oc2cc(O)cc(O)c21 [Naringenin]	100%	0%	0%	0%	≦1%	0%	–	low efficiency	Almost all
COc1ccc(C2COc3cc(O)ccc3C2)c(O)c1 (stereo not drawn) [Vestitol]	3.4%	66.2%	43.8%	0%	≦1%	0%	low level, trace activity	low efficiency	–
